Source: ChEMBL document CHEMBL4476878, “Galactokinase inhibitors” (2013)
The source made the active and inactive calls.

Assays:
[1] = system: Geobacillus stearothermophilus; assay: Inhibition of Bacillus stearothermophilus glucokinase
Saccharomyces cerevisiae = assay: Inhibition of Saccharomyces cerevisiae hexokinase
[2] = target: Galactokinase (Homo sapiens) (UniProt P51570); assay: Inhibition of His6-tagged recombinant human GALK expressed in Escherichia coli HMS174 (DE3) incubated for 60 mins using galactose and ATP by Kinase-Glo reagent based assay
[3] = target: Galactokinase (Homo sapiens) (UniProt P51570); assay: Inhibition of His6-tagged recombinant human GALK expressed in Escherichia coli HMS174 (DE3) by pyruvate kinase/lactate dehydrogenase-coupled assay
[4] = target: Galactokinase (Homo sapiens) (UniProt P51570); assay: Inhibition of His6-tagged recombinant human GALK expressed in Escherichia coli HMS174 (DE3) at 5 to 15 uM incubated for 60 mins using galactose and ATP by Kinase-Glo reagent based assay
[5] = target: T1, 4-diphosphocytidyl-2-C-methyl-D-erythritol kinase (Escherichia coli (strain K12)) (UniProt P62615); assay: Inhibition of purified Escherichia coli CDP-ME kinase IspE expressed in Escherichia coli HMS174 at 10 to 50 uM by luciferase-luciferin based luminescence-based assay
T1 sequence (whole entry): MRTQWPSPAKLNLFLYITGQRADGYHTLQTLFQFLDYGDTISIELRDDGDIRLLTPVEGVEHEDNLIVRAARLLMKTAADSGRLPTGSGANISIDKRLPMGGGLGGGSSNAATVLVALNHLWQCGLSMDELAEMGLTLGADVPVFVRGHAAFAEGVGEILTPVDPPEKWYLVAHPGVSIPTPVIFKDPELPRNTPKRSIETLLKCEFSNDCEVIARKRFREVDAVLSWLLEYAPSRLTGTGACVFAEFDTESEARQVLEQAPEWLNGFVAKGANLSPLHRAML

Measured: inhibition

Sequence of Galactokinase (Homo sapiens) (P51570 whole entry): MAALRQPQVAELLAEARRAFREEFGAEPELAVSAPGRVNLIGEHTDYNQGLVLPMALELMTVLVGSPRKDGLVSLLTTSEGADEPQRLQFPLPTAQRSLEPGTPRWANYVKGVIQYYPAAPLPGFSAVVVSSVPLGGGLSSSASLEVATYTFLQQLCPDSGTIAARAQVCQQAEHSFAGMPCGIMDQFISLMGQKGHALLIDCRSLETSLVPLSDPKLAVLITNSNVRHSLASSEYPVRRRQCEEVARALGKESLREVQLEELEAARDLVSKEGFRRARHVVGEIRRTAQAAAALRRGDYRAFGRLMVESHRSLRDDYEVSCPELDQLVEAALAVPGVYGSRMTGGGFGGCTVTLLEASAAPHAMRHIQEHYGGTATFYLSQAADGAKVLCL

CCSC1=C(C#N)C(=O)NC(/C=C/c2ccccc2)S1 (stereo not drawn)
active: [1] | Saccharomyces cerevisiae | [2]

Cc1c(N=c2c(=O)c3ccccc3c2=O)c(=O)n(-c2ccccc2)n1C
active: [1] | Saccharomyces cerevisiae | [2]

Oc1c(Cl)cc(Cl)c(Cl)c1Cc1c(O)c(Cl)cc(Cl)c1Cl
active: [1] | Saccharomyces cerevisiae | [2] | [3]

Cn1c(=S)[nH]c2sc3c(c2c1=O)CCC(C(C)(C)C)C3 (stereo not drawn)
active: [1] | Saccharomyces cerevisiae | [2]

O=C1C(NS(=O)(=O)c2ccccc2)=C/C(=N\S(=O)(=O)c2ccc(F)cc2)c2ccccc21
active: [1] | Saccharomyces cerevisiae | [2]

c1ccc(-c2cnc3nonc3n2)cc1
active: [1] | Saccharomyces cerevisiae | [2]

CC1(c2ccccc2)CC(C)(C)N2C(=O)/C(=C3/SC(=O)NC3=O)c3cccc1c32 (stereo not drawn)
active: [1] | Saccharomyces cerevisiae | [2] | [3]

CC1(C)CCC2=C(O1)c1ccccc1C(=O)C2=O
active: [1] | Saccharomyces cerevisiae | [2]

Nc1ncnc2c1ncn2[C@@H]1O[C@H](COP(=O)(O)OP(=O)(O)OP(O)(O)=S)[C@@H](O)[C@H]1O
active: [4]

Cc1cccc(OCCOc2ccc(Br)cc2/C=C2\SC(=S)NC2=O)c1
active: [1] | Saccharomyces cerevisiae | [2]

O=C1NC(=S)N(c2cccc3ccccc23)C(=O)/C1=C/c1c[nH]c2ccccc12
active: [1] | Saccharomyces cerevisiae | [2]

O=C(NC1(O)C(=O)c2ccccc2C1=O)c1cnn(-c2ccccc2)c1C(F)(F)F
active: [1] | Saccharomyces cerevisiae | [2]

COC(=O)CSC1=C(C#N)C(=O)NC(c2ccccc2O)S1 (stereo not drawn)
active: [1] | Saccharomyces cerevisiae | [2]

N#CC1=C(SCc2ccccc2)SC(c2ccc(C(=O)O)cc2)NC1=O (stereo not drawn)
active: [1] | Saccharomyces cerevisiae | [2]

COc1cc(/C=C2/SC(=S)NC2=O)ccc1OC(=O)c1cccc(C)c1
active: [1] | Saccharomyces cerevisiae | [2]

CC(C)OC1(O)C(=O)c2ccccc2C(=O)C1(O)OC(C)C (stereo not drawn)
active: [1] | Saccharomyces cerevisiae | [2]

O=C1Nc2ccc(I)cc2/C1=C/c1cc(Br)c(O)c(Br)c1
active: [1] | Saccharomyces cerevisiae | [2]

O=C1C=C2N(c3ccccc3)CCOC2(O)c2ccccc21 (stereo not drawn)
active: [1] | Saccharomyces cerevisiae | [2]

N#Cc1c(-c2ccc(Cl)cc2)nc(SCc2ccccc2)[nH]c1=S
active: [1] | Saccharomyces cerevisiae | [2]

O=C1NC(=O)N(c2ccccc2)C(=O)/C1=C/c1c2ccccc2cc2ccccc12
active: [1] | Saccharomyces cerevisiae | [2]

Cc1ccc(CSc2nc(C(=O)O)ccc2C#N)cc1
active: [1] | Saccharomyces cerevisiae | [2]

O=C1OC(c2ccccc2)OC(=O)C1=C/C=C/c1ccccc1 (stereo not drawn)
active: [1] | Saccharomyces cerevisiae | [2]

CC1=NN(c2cccc(C(=O)O)c2)C(=O)/C1=C/c1ccc(-c2cccc(Cl)c2C)o1
active: [1] | Saccharomyces cerevisiae | [2]

O=C1OC2(CCCC2)OC(=O)C1=Cc1ccc(OCc2ccccc2)cc1
active: [1] | Saccharomyces cerevisiae | [2]

N#Cc1ccc(CSc2nc(-c3cccs3)c3c(c2C(=O)O)CCCC3)cc1
active: [1] | Saccharomyces cerevisiae | [2]

CC(C)(C)c1cc(/C=C2/SC(=S)NC2=O)cc(C(C)(C)C)c1O
active: [1] | Saccharomyces cerevisiae | [2]

CC(C)(C)C(=O)Nc1ccc2c(c1)C(=O)C(=O)c1ccccc1-2
active: [1] | Saccharomyces cerevisiae | [2] | [3]

CCOc1cccc(NC(=O)C2CC(=O)N(/N=C(\C)c3ccc(Br)s3)C(=N)S2)c1 (stereo not drawn)
active: [1] | Saccharomyces cerevisiae | [2]

O=C1OC2(c3ccccc31)c1cc(I)c(O)c(I)c1Oc1c2cc(I)c(O)c1I
active: [1] | Saccharomyces cerevisiae | [2]

O=C1O[C@H](c2ccccc2)[C@H](c2ccccc2)N2[C@H]1[C@@H](C(=O)O)[C@]1(C(=O)Nc3ccc(C#CC4(O)CCCCCC4)cc31)[C@H]2c1ccc(OCCO)cc1
active: [1] | Saccharomyces cerevisiae | [2]

Cc1c(O)c(C(=O)CC(C)C)c2oc3c(C(=O)CC(C)C)c(O)c(C)c(O)c3c2c1O
active: [1] | Saccharomyces cerevisiae | [2]

COC1=C(N)C(=O)c2nc(-c3nc(C(=O)O)c(C)c(-c4ccc(OC)c(OC)c4O)c3N)ccc2C1=O
active: [1] | Saccharomyces cerevisiae | [2] | [3]

Cc1cc2c(C(C)C)c(O)c(O)c(C=O)c2c(O)c1-c1c(C)cc2c(C(C)C)c(O)c(O)c(C=O)c2c1O
active: [5]

CC1=NOC(=O)/C1=C\c1ccc(-c2ccccc2)o1
active: [1] | Saccharomyces cerevisiae | [2]

Oc1c(Cl)cc(Cl)cc1Sc1cc(Cl)cc(Cl)c1O
active: [1] | Saccharomyces cerevisiae | [2]

N#CC1=C(SCc2ccccc2)SC(c2ccccc2O)NC1=O (stereo not drawn)
active: [1] | Saccharomyces cerevisiae | [2]
